According to paper PMC12362783 (Advanced Science, 2025):

Key:
Assay type in all cases: cell-based
[1] = test system: MDA‐MB‐453; experiment: Cell growth inhibition, CellTiter‐Glo (CTG); conditions: Homo sapiens, MDA-MB-453; n = 3; read-out: IC50 MAD‐MB‐453
Procedure: (§1) Growth viability was determined by the CellTiter‐Glo luminescent viability assay (Promega) 5 days after drug treatment. Cell viability was measured immediately after dosing (Day 0) and after 5 days of incubation using CellTiter‐Glo (CTG, Promega, G7573). Relative viability was calculated by normalizing the raw luminescence counts of the treated groups to those of the DMSO control groups. IC₅₀ values were calculated using sigmoidal dose‐response curve fitting with GraphPad Prism 9.0 software.

[2] = test system: MCF‐7; experiment: Cell growth inhibition, CellTiter‐Glo (CTG); conditions: Homo sapiens, MCF7; n = 3
Procedure: as §1

[3] = test system: MDA‐MB‐231 cells; experiment: Cell apoptosis assay, Annexin V‐FITC/PI; conditions: MDA‐MB‐231, 72 h
Procedure: (§2) The cell apoptosis analysis was performed with cells seeded in 6‐well plates in growth media. The cells were allowed to attach overnight (8 h). The cultures were treated with different tested drugs for 72 h and evaluated using an Annexin V Flow Kit (BioLegend#B367750) according to the manufacturer's instructions. The data were analyzed by FlowJo software (Tree Star, Inc., Ashland, OR).

[4] = test system: MDA‐MB‐468 cells; experiment: Cell apoptosis assay, Annexin V‐FITC/PI; conditions: MDA‐MB‐468, 72 h
Procedure: as §2

[5] = test system: MDA‐MB‐468 cells; experiment: Western blotting analysis; conditions: 48 h
Procedure: Cells were washed with cold PBS and lysed in RIPA buffer containing protease inhibitors (MCE, HY‐K0010). The lysate was centrifuged (13 000 rpm, 4 °C, 15 min); the protein concentrations were determined by the BCA Assay Kit (Beyotime, p0012s). Proteins were loaded onto 10% SDS‐PAGE gel and then transferred onto polyvinylidene fluoride (Millipore) membranes. The membranes were blocked for 1 h, incubated with primary antibodies overnight at 4 °C, and then washed three times with Tris‐buffered saline with Tween 20 (TBST) for 10 min. After incubating with the secondary HRP antibody for 1 h at room temperature, the membranes were washed three times with TBST for 10 min and then exposed on autoradiograph films using enhanced chemiluminescence. The primary antibodies used were ATR (1/1000 dilution, CST#13 934), PARP1 (1/1000 dilution, CST#9532), BCL‐2 (1/1000 dilution, CST#4223), Bax (1/1000 dilution, CST#5023), Caspase 3 (1/1000 dilution, CT#9662), Cleaved caspase 3 (1/1000 dilution, CST#9661), E‐cadherin (1/1000 dilution, CST#3195), Vimetin (1/1000 dilution, CST#5741), p‐CHK1 (1/1000 dilution, CST#2348), CHK1 (1/1000 dilution, CST#2360), CDK1 (Proteintech#19532‐1‐AP), p‐CDK1 (CST#9114), γH2AX (1/1000 dilution, CST#9718), and β‐Actin (1/1000 dilution, Proteintech# 66009‐1‐Ig).

[6] = compared to the combination group

C[C@@H]1COCCN1c1cc(CNC(=O)c2ccc(C(=O)N3CCN(C(=O)c4cc(Cc5n[nH]c(=O)c6ccccc56)ccc4F)CC3)cc2)nc(-c2ccnc3[nH]ccc23)n1 [Compound B8, (R)‐4‐(4‐(2‐fluoro‐5‐((4‐oxo‐3,4‐dihydrophthalazin‐1‐yl)methyl)benzoyl)piperazine‐1‐carbonyl)‐N‐((6‐(3‐methylmorpholino)‐2‐(1H‐pyrrolo[2,3‐b]pyridin‐4‐yl)pyrimidin‐4‐yl)methyl) benzamide]
IC50 [1]: 1080 ± 30 nM
IC50 [2]: 970 ± 90 nM
ability to induce apoptosis vs combination of AZD6738 and Olaparib [3]: markedly stronger capacity to induce apoptosis
ability to induce apoptosis vs combination of AZD6738 and Olaparib [4]: markedly stronger capacity to induce apoptosis
BCL‐2 protein expression (Western blot) [5]: significantly decreased the protein expression of BCL‐2
CDK1 Tyr15 phosphorylation (Western blot) [5]: enhanced CDK1 Tyr15 phosphorylation
CHK1 Ser345 phosphorylation (Western blot) [5]: significantly decreased CHK1 Ser345 phosphorylation
E‐cadherin expression (Western blot) [5, 6]: significant increase in the expression of the epithelial cell marker E‐cadherin
Vimentin expression (Western blot) [5, 6]: decrease in the expression of the mesenchymal cell marker Vimentin
BAX and cleaved‐caspase‐3 protein expression (Western blot) ([5]; compared to the combination of AZD6738 and Olaparib): induced more BAX and cleaved‐caspase‐3 protein expression
DSB marker γH2AX (Western blot) ([5]; B8 1.0 and 2.0 µM): significantly increased than under the combination treatment
protein levels of ATR and PARP1 (Western blot) ([5]; B8 1.0 and 2.0 µM, vs Olaparib or AZD6738 alone or in combination): reduction in the protein levels of both ATR and PARP1
